Experimental findings from the supplement of paper PMC10307832 are described below.

Holding throughout (assay): relative viability (nuclei count vs DMSO), 5 days (fraction); higher = more cells survive
Compound in the experiment “Carfilzomib + Pemetrexed”: CC(C)C[C@H](NC(=O)[C@H](CCc1ccccc1)NC(=O)CN1CCOCC1)C(=O)N[C@@H](Cc1ccccc1)C(=O)N[C@@H](CC(C)C)C(=O)[C@@]1(C)CO1 [Carfilzomib] + Nc1nc2[nH]cc(CCc3ccc(C(=O)N[C@@H](CCC(=O)O)C(=O)O)cc3)c2c(=O)[nH]1 [Pemetrexed] (partner 0.2 µM)
Summed up: (§1)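 Lung cancer cell lines in 1536-well plates were dosed by pin tool the day after seeding, either with one drug alone or with a fixed anchor-drug dose plus five library-drug doses (not always all listed) in √10 steps. After 5 days, cells were fixed and their nuclei stained in one step (final 0.05% Triton X-100, 1% formaldehyde, 1 ug/ml Hoechst), then counted on 4× images. Relative viability is the nuclei count in treated wells divided by that in vehicle wells. Values are medians of duplicate plates.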

Compound in the experiment “Crizotinib + Phenformin”: C[C@@H](Oc1cc(-c2cnn(C3CCNCC3)c2)cnc1N)c1c(Cl)ccc(F)c1Cl [Crizotinib] + N=C(N)NC(=N)NCCc1ccccc1 [Phenformin] (partner 250 µM)
In a few lines: as §1

Compound in the experiment “Crizotinib + Decitabine”: C[C@@H](Oc1cc(-c2cnn(C3CCNCC3)c2)cnc1N)c1c(Cl)ccc(F)c1Cl [Crizotinib] + Nc1ncn([C@H]2C[C@H](O)[C@@H](CO)O2)c(=O)n1 [Decitabine] (partner 2 µM)
Summed up:
as §1

Compound in the experiment “Crizotinib + Vorinostat”: C[C@@H](Oc1cc(-c2cnn(C3CCNCC3)c2)cnc1N)c1c(Cl)ccc(F)c1Cl [Crizotinib] + O=C(CCCCCCC(=O)Nc1ccccc1)NO [Vorinostat] (partner 1 µM)
Summed up:
as §1

Compound in the experiment “Olaparib + Palbociclib”: O=C(c1cc(Cc2n[nH]c(=O)c3ccccc23)ccc1F)N1CCN(C(=O)C2CC2)CC1 [Olaparib] + CC(=O)c1c(C)c2cnc(Nc3ccc(N4CCNCC4)cn3)nc2n(C2CCCC2)c1=O [Palbociclib] (partner 0.5 µM)
In a few lines: as §1

For NCI-H1793, the relative viability worked out at 0.58 in the experiment with Carfilzomib + Pemetrexed (first compound 0.001 µM); 1.13 with Carfilzomib + Pemetrexed (first compound 0.003162 µM); 0.861 with Carfilzomib + Pemetrexed (first compound 0.01 µM); 0.7 in the experiment with Carfilzomib + Pemetrexed (first compound 0.03162 µM); 0.336 with Carfilzomib + Pemetrexed (first compound 0.1 µM); 0.408 with Crizotinib + Phenformin (first compound 0.03162 µM). Moreover, the relative viability with Crizotinib + Phenformin (first compound 0.1 µM) came out at 0.343; with Crizotinib + Phenformin (first compound 1 µM), 0.388; with Crizotinib + Decitabine (first compound 0.03162 µM) it was 0.522; with Crizotinib + Decitabine (first compound 0.1 µM) it was 0.53; with Crizotinib + Decitabine (first compound 1 µM) it was 0.555; with Crizotinib + Vorinostat (first compound 0.03162 µM) it was 0.765. In addition, the relative viability with Crizotinib + Vorinostat (first compound 0.1 µM) worked out at 0.748; with Crizotinib + Vorinostat (first compound 1 µM), 0.896; with Olaparib + Palbociclib (first compound 0.08 µM), 0.274; with Olaparib + Palbociclib (first compound 0.253 µM), 0.302; with Olaparib + Palbociclib (first compound 2.53 µM), 0.327; with Olaparib + Palbociclib (first compound 8 µM), 0.286.
